Source: ChEMBL document CHEMBL1201862, “PubChem BioAssay data set” (2004)
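Method: 48-hour compound exposure of cells in 96-well plates, five concentrations, linear interpolation of endpoints. Abbreviation: GI50, concentration required for 50% inhibition of growth.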 Calls of active or inactive are those of the source. No stated cut-off is given here; in the data, active = GI50 up to about 1.1 µM and inactive = higher.

Columns and labels:
Test in all cases: NCI anticancer screen, dose series, 48 h
HCT-116 = test system: HCT-116
U-251 = test system: U-251
K562 = test system: K562
SW-620 = test system: SW-620
NCI/ADR-RES = test system: NCI/ADR-RES
HCC 2998 = test system: HCC 2998
DU-145 = test system: DU-145
RXF 393 = test system: RXF 393
RPMI-8226 = test system: RPMI-8226
SK-OV-3 = test system: SK-OV-3
MDA-N = test system: MDA-N
OVCAR-4 = test system: OVCAR-4
KM12 = test system: KM12
MDA-MB-231 = test system: MDA-MB-231
MOLT-4 = test system: MOLT-4
LOX IMVI = test system: LOX IMVI
UACC-62 = test system: UACC-62
OVCAR-5 = test system: OVCAR-5
NCI-H226 = test system: NCI-H226
SNB-75 = test system: SNB-75

Row | Structure (SMILES) | GI50 (HCT-116) | GI50 (U-251) | GI50 (K562) | GI50 (SW-620) | GI50 (NCI/ADR-RES) | GI50 (HCC 2998) | GI50 (DU-145) | GI50 (RXF 393) | GI50 (RPMI-8226) | GI50 (SK-OV-3) | GI50 (MDA-N) | GI50 (OVCAR-4) | GI50 (KM12) | GI50 (MDA-MB-231) | GI50 (MOLT-4) | GI50 (LOX IMVI) | GI50 (UACC-62) | GI50 (OVCAR-5) | GI50 (NCI-H226) | GI50 (SNB-75)
1 | O=c1ccn2n1CCCCC2 | > 100 µM (inactive) | > 100 µM (inactive) | > 100 µM (inactive) | > 100 µM (inactive) | > 100 µM (inactive) | > 100 µM (inactive) | > 100 µM (inactive) | > 100 µM (inactive) | > 100 µM (inactive) | > 100 µM (inactive) | > 100 µM (inactive) | > 100 µM (inactive) | > 100 µM (inactive) | > 100 µM (inactive) | > 100 µM (inactive) | > 100 µM (inactive) | > 100 µM (inactive) | > 100 µM (inactive) | > 100 µM (inactive) | –
2 | Cc1c(N=C(S)Nc2ccc(Cl)cc2)c(=O)n(-c2ccccc2)n1C | > 100 µM (inactive) | > 100 µM (inactive) | > 100 µM (inactive) | > 100 µM (inactive) | > 100 µM (inactive) | > 100 µM (inactive) | > 100 µM (inactive) | > 100 µM (inactive) | > 100 µM (inactive) | > 100 µM (inactive) | > 100 µM (inactive) | – | > 100 µM (inactive) | > 100 µM (inactive) | > 100 µM (inactive) | > 100 µM (inactive) | > 100 µM (inactive) | > 100 µM (inactive) | > 100 µM (inactive) | > 100 µM (inactive)
3 | CSc1cc(-c2cccs2)sc1-c1cc(SC)c(-c2sc(-c3sc(-c4cccs4)cc3SC)cc2SC)s1 | > 100 µM (inactive) | > 100 µM (inactive) | > 100 µM (inactive) | > 100 µM (inactive) | > 100 µM (inactive) | > 100 µM (inactive) | > 100 µM (inactive) | > 100 µM (inactive) | > 100 µM (inactive) | > 100 µM (inactive) | > 100 µM (inactive) | > 100 µM (inactive) | > 100 µM (inactive) | > 100 µM (inactive) | > 100 µM (inactive) | > 100 µM (inactive) | > 100 µM (inactive) | 30.6 µM (inactive) | – | –
4 | C1CSCCCSCCCSCCCSCCCSCCCSCCCSCCCSC1 | > 100 µM (inactive) | > 100 µM (inactive) | > 100 µM (inactive) | > 100 µM (inactive) | > 100 µM (inactive) | > 100 µM (inactive) | > 100 µM (inactive) | > 100 µM (inactive) | > 100 µM (inactive) | > 100 µM (inactive) | > 100 µM (inactive) | > 100 µM (inactive) | > 100 µM (inactive) | > 100 µM (inactive) | > 100 µM (inactive) | > 100 µM (inactive) | – | > 100 µM (inactive) | 82.2 µM (inactive) | –
5 | O=C(/C=C1\Sc2ccccc2N=C1CC(=O)c1ccccc1)c1ccccc1 | 4.9 µM (inactive) | 2.01 µM (inactive) | 3.79 µM (inactive) | 3.97 µM (inactive) | 4.02 µM (inactive) | 10.1 µM (inactive) | 6.65 µM (inactive) | 26.5 µM (inactive) | 4.65 µM (inactive) | 9.82 µM (inactive) | 8.22 µM (inactive) | 4.99 µM (inactive) | 4.76 µM (inactive) | 6 µM (inactive) | 1.79 µM (inactive) | 3 µM (inactive) | – | 12.8 µM (inactive) | 7.1 µM (inactive) | –
6 | CCOC(=O)CC1(O)CCCCC1(Sc1ccc(C)cc1)Sc1ccc(C)cc1 (stereo not given) | 33.9 µM (inactive) | 33.7 µM (inactive) | 41.5 µM (inactive) | 62.4 µM (inactive) | 65.9 µM (inactive) | 31.5 µM (inactive) | 59.2 µM (inactive) | 42.4 µM (inactive) | – | > 100 µM (inactive) | 35.5 µM (inactive) | 47.8 µM (inactive) | 44.2 µM (inactive) | 77.4 µM (inactive) | 24.9 µM (inactive) | 36.8 µM (inactive) | 92 µM (inactive) | 44.2 µM (inactive) | 34.4 µM (inactive) | 27.5 µM (inactive)
7 | CCOC(=O)c1c[nH]cc1-c1cn(S(=O)(=O)c2ccccc2)cc1C | 21.6 µM (inactive) | 25.6 µM (inactive) | 19.1 µM (inactive) | > 10 µM (inactive) | 22.2 µM (inactive) | 17.5 µM (inactive) | 50.7 µM (inactive) | 47.1 µM (inactive) | – | 25.9 µM (inactive) | 17.9 µM (inactive) | 39.4 µM (inactive) | 19.6 µM (inactive) | 20.5 µM (inactive) | 20.4 µM (inactive) | 23.4 µM (inactive) | 15.3 µM (inactive) | 52.7 µM (inactive) | – | 15.3 µM (inactive)
8 | C/C=C(\C)c1cc(=O)c2c(C)cc3c(c2o1)C(OC)(OC(C)=O)c1c(O)c(C2CC(C)(N(C)C)C(OC(C)=O)C(C)O2)cc(C2CC(N(C)C)C(OC(C)=O)C(C)O2)c1C3=O (stereo not given) | 0.286 µM (active) | 0.914 µM (active) | 0.239 µM (active) | 0.237 µM (active) | 1.75 µM (inactive) | 0.0218 µM (active) | 0.497 µM (active) | 1.37 µM (inactive) | – | 2.75 µM (inactive) | 1.64 µM (inactive) | – | 1.14 µM (inactive) | 0.178 µM (active) | 0.277 µM (active) | 0.512 µM (active) | 1.22 µM (inactive) | 2.17 µM (inactive) | 1.34 µM (inactive) | 1.69 µM (inactive)
9 | CC(=O)C(O)N1C(=O)C=CC1=O (stereo not given) | 5.61 µM (inactive) | 17.4 µM (inactive) | > 25 µM (inactive) | 1.71 µM (inactive) | 13.2 µM (inactive) | 21 µM (inactive) | 12.8 µM (inactive) | 2.13 µM (inactive) | 2.26 µM (inactive) | 25.2 µM (inactive) | 18.6 µM (inactive) | – | 18.9 µM (inactive) | 5.05 µM (inactive) | 2.05 µM (inactive) | 4.43 µM (inactive) | 16.8 µM (inactive) | 17.1 µM (inactive) | 12.9 µM (inactive) | 6.24 µM (inactive)
10 | O=C(N/N=C/c1ccc2c(c1)OCO2)Nc1ccccc1Cl | 0.861 µM (active) | 2.68 µM (inactive) | 0.327 µM (active) | 0.708 µM (active) | 0.335 µM (active) | 0.361 µM (active) | 2.02 µM (inactive) | 1.57 µM (inactive) | 1.48 µM (inactive) | 2.77 µM (inactive) | 0.161 µM (active) | 10 µM (inactive) | 0.598 µM (active) | 4.7 µM (inactive) | 0.462 µM (active) | 2.95 µM (inactive) | 0.762 µM (active) | 8 µM (inactive) | 4.19 µM (inactive) | –
11 | COCOc1cc(OC)ccc1C/C(=N/O)C(=O)OC | > 100 µM (inactive) | > 100 µM (inactive) | > 100 µM (inactive) | > 100 µM (inactive) | > 100 µM (inactive) | > 100 µM (inactive) | > 100 µM (inactive) | > 100 µM (inactive) | – | > 100 µM (inactive) | > 100 µM (inactive) | > 100 µM (inactive) | > 100 µM (inactive) | > 100 µM (inactive) | > 100 µM (inactive) | > 100 µM (inactive) | > 100 µM (inactive) | > 100 µM (inactive) | > 100 µM (inactive) | 31.8 µM (inactive)
12 | O=[N+]([O-])c1ccc(S(=O)(=O)n2c3ccc(Br)cc3c3nc4ccccc4nc32)cc1 | > 100 µM (inactive) | > 100 µM (inactive) | 70.8 µM (inactive) | > 100 µM (inactive) | > 100 µM (inactive) | > 100 µM (inactive) | > 100 µM (inactive) | > 100 µM (inactive) | > 100 µM (inactive) | – | > 100 µM (inactive) | > 100 µM (inactive) | > 100 µM (inactive) | > 100 µM (inactive) | > 100 µM (inactive) | > 100 µM (inactive) | > 100 µM (inactive) | > 100 µM (inactive) | 24 µM (inactive) | 77.6 µM (inactive)
13 | COc1ccc(C2SCC(=O)N2NC(=O)c2ccc(NC(C)=O)cc2)cc1 (stereo not given) | > 100 µM (inactive) | 40.6 µM (inactive) | > 100 µM (inactive) | > 100 µM (inactive) | > 100 µM (inactive) | > 100 µM (inactive) | > 100 µM (inactive) | > 100 µM (inactive) | > 100 µM (inactive) | > 100 µM (inactive) | > 100 µM (inactive) | > 100 µM (inactive) | > 100 µM (inactive) | 26.5 µM (inactive) | > 100 µM (inactive) | – | > 100 µM (inactive) | > 100 µM (inactive) | > 100 µM (inactive) | > 100 µM (inactive)
14 | CN(C)c1ccc(/C=C(/NC(=O)c2ccccc2)C(=O)Nc2ccccc2C(=O)O)cc1 | > 100 µM (inactive) | > 100 µM (inactive) | > 100 µM (inactive) | > 100 µM (inactive) | > 100 µM (inactive) | > 100 µM (inactive) | > 100 µM (inactive) | > 100 µM (inactive) | > 100 µM (inactive) | > 100 µM (inactive) | > 100 µM (inactive) | – | > 100 µM (inactive) | > 100 µM (inactive) | > 100 µM (inactive) | > 100 µM (inactive) | > 100 µM (inactive) | > 100 µM (inactive) | > 100 µM (inactive) | > 100 µM (inactive)
15 | Clc1cc(N/N=C(/c2ccccc2)c2ncccn2)ncn1 | 7.26 µM (inactive) | 31.8 µM (inactive) | 9.1 µM (inactive) | 7.18 µM (inactive) | 20.1 µM (inactive) | 70.3 µM (inactive) | 39.2 µM (inactive) | 19.8 µM (inactive) | 16.5 µM (inactive) | 19.1 µM (inactive) | 62.8 µM (inactive) | 22.1 µM (inactive) | 43 µM (inactive) | 20.2 µM (inactive) | 5.87 µM (inactive) | – | 32.2 µM (inactive) | 85.5 µM (inactive) | 56.4 µM (inactive) | 26.1 µM (inactive)
